We go through twelve compounds from US10071086B2, “1H-pyrazolo[3,4-b]pyridines and therapeutic uses thereof” (Samumed, LLC, priority 2012, dated 2018).

This test deals with Wnt pathway. Description: Wnt activity reporter assay (SP5 promoter-luciferase in SW480 cells). The class given is cell-based. The conditions noted are these: Homo sapiens, SP5 promoter firefly luciferase reporter, read-out: Wnt inhibition. The source says:
The above synthesized compounds were screened using the assay procedure for Wnt activity described below.
Reporter cell lines can be generated by stably transducing cells of cancer cell lines (e.g., colon cancer) with a lentiviral construct that include a wnt-responsive promoter driving expression of the firefly luciferase gene.
Lentiviral constructs can be made in which the SP5 promoter, a promoter having eight TCF/LEF binding sites derived from the SP5 promoter, is linked upstream of the firefly luciferase gene. The lentiviral constructs can also include a hygromycin resistance gene as a selectable marker. The SP5 promoter construct can be used to transduce SW480 cells, a colon cancer cell line having a mutated APC gene that generates a truncated APC protein, leading to de-regulated accumulation of β-catenin.
Cultured SW480 cells bearing a reporter construct can be distributed at approximately 10,000 cells per well into 96 well or 384 well plates. Compounds from a small molecule compound library can then be added to the wells in half-log dilutions using a ten micromolar top concentration. A series of control wells for each cell type receive only buffer and compound solvent. Twenty-four to forty hours after the addition of compound, reporter activity for luciferase can be assayed, for example, by addition of the BrightGlo luminescence reagent (Promega) and the Victor3 plate reader (Perkin Elmer). Readings can be normalized to DMSO only treated cells, and normalized activities can then be used in the IC50 calculations.
On the technique in general: A reporter such as luciferase makes a cellular process visible.

On to `CC(C)Nc1cncc(-c2cnc3[nH]nc(-c4nc5c(-c6ccncc6)cncc5[nH]4)c3c2)c1` [Compound 198, N-Isopropyl-5-(3-(7-(pyridin-4-yl)-3H-imidazo[4,5-c]pyridin-2-yl)-1H-pyrazolo[3,4-b]pyridin-5-yl)pyridin-3-amine], for which the IC50 was determined as 1.13 µM.
`c1ccc(CNCc2cncc(-c3cnc4[nH]nc(-c5nc6c(-c7ccncc7)cncc6[nH]5)c4c3)c2)cc1` [Compound 209, N-Benzyl-1-(5-(3-(7-(pyridin-4-yl)-3H-imidazo[4,5-c]pyridin-2-yl)-1H-pyrazolo[3,4-b]pyridin-5-yl)pyridin-3-yl)methanamine]: the IC50 was found to be 9.8 µM.
The same measure for `O=C(Nc1cncc(-c2cnc3[nH]nc(-c4nc5c(-c6ccccn6)cncc5[nH]4)c3c2)c1)C1CCC1` [Compound 229, N-(5-(3-(7-(Pyridin-2-yl)-3H-imidazo[4,5-c]pyridin-2-yl)-1H-pyrazolo[3,4-b]pyridin-5-yl)pyridin-3-yl)cyclobutanecarboxamide]: 0.012 µM; for `Nc1cncc(-c2cnc3[nH]nc(-c4nc5c(N6CCCCC6)cncc5[nH]4)c3c2)c1` [Compound 238, 5-(3-(7-(Piperidin-1-yl)-3H-imidazo[4,5-c]pyridin-2-yl)-1H-pyrazolo[3,4-b]pyridin-5-yl)pyridin-3-amine]: 0.35 µM.
Turning to `CCNCc1cncc(-c2cnc3[nH]nc(-c4nc5c(N6CCCCC6)cncc5[nH]4)c3c2)c1` [Compound 241, N-((5-(3-(7-(Piperidin-1-yl)-3H-imidazo[4,5-c]pyridin-2-yl)-1H-pyrazolo[3,4-b]pyridin-5-yl)pyridin-3-yl)methyl)ethanamine], the IC50 came to 0.19 µM.
With `O=C(Nc1cncc(-c2cnc3[nH]nc(-c4nc5c(N6CCCCC6)cncc5[nH]4)c3c2)c1)c1ccccc1` [Compound 246, N-(5-(3-(7-(Piperidin-1-yl)-3H-imidazo[4,5-c]pyridin-2-yl)-1H-pyrazolo[3,4-b]pyridin-5-yl)pyridin-3-yl)benzamide] the figure was 1.27 µM; with `c1ncc(-c2cnc3[nH]nc(-c4nc5c(N6CCCCC6)cncc5[nH]4)c3c2)cc1CN1CCCC1` [Compound 249, 3-(7-(Piperidin-1-yl)-3H-imidazo[4,5-c]pyridin-2-yl)-5-(5-(pyrrolidin-1-ylmethyl)pyridin-3-yl)-1H-pyrazolo[3,4-b]pyridine], 10 µM.
The same measure for `O=C(Nc1cncc(-c2cnc3[nH]nc(-c4nc5c(N6CCCCC6)cncc5[nH]4)c3c2)c1)C1CC1` [Compound 254, N-(5-(3-(7-(Piperidin-1-yl)-3H-imidazo[4,5-c]pyridin-2-yl)-1H-pyrazolo[3,4-b]pyridin-5-yl)pyridin-3-yl)cyclopropanecarboxamide]: 0.235 µM; for `CCCCC(=O)Nc1cncc(-c2cnc3[nH]nc(-c4nc5c(N6CCN(C)CC6)cncc5[nH]4)c3c2)c1` [Compound 305, N-(5-(3-(7-(4-Methylpiperazin-1-yl)-3H-imidazo[4,5-c]pyridin-2-yl)-1H-pyrazolo[3,4-b]pyridin-5-yl)pyridin-3-yl)pentanamide]: 7.35 µM.
With `CN1CCN(c2cncc3[nH]c(-c4n[nH]c5ncc(-c6cncc(NC(=O)C7CCCCC7)c6)cc45)nc23)CC1` [Compound 309, N-(5-(3-(7-(4-Methylpiperazin-1-yl)-3H-imidazo[4,5-c]pyridin-2-yl)-1H-pyrazolo[3,4-b]pyridin-5-yl)pyridin-3-yl)cyclohexanecarboxamide] the figure was 1.02 µM; with `CC(C)Nc1cncc(-c2cnc3[nH]nc(-c4nc5ccncc5[nH]4)c3c2)c1` [Compound 325, 5-(3-(3H-Imidazo[4,5-c]pyridin-2-yl)-1H-pyrazolo[3,4-b]pyridin-5-yl)-N-isopropylpyridin-3-amine], 0.058 µM.
Regarding `c1ccc(CNCc2cncc(-c3cnc4[nH]nc(-c5nc6ccncc6[nH]5)c4c3)c2)cc1` [Compound 336, 1-(5-(3-(3H-Imidazo[4,5-c]pyridin-2-yl)-1H-pyrazolo[3,4-b]pyridin-5-yl)pyridin-3-yl)-N-benzylmethanamine], the IC50 was found to be 0.79 µM.
